Experiment [1] has as its target CDK2/Cyclin E1 complex (Homo sapiens, UniProt P24941). The experiment in a line: CDK2 kinase inhibition assay (Caliper/LabChip EZ Reader).
Experiment [2] relates to COV318 cells. Description: Inhibition of cell proliferation (CyQUANT Direct), COV318. Format: cell-based, human. Particulars: Homo sapiens, COV318, 72-hour.
In experiment [3] the test system is COV504 cells. Description: Inhibition of cell proliferation (CyQUANT Direct), COV504. It is filed as cell-based, human. Particulars: Homo sapiens, COV504, 72-hour.
The subject of experiment [4] is MB453 cells. The experiment in a line: Inhibition of cell proliferation (CyQUANT Direct), MB453. It is filed as cell-based, human. Particulars: Homo sapiens, MB453, 72-hour.
For experiment [5], the target named is CDK7/Cyclin H/MAT1 complex (Homo sapiens, UniProt P50613). The experiment in a line: CDK7 kinase inhibition assay (Caliper/LabChip EZ Reader).
Chain of CDK7/Cyclin H/MAT1 complex (P50613 whole entry): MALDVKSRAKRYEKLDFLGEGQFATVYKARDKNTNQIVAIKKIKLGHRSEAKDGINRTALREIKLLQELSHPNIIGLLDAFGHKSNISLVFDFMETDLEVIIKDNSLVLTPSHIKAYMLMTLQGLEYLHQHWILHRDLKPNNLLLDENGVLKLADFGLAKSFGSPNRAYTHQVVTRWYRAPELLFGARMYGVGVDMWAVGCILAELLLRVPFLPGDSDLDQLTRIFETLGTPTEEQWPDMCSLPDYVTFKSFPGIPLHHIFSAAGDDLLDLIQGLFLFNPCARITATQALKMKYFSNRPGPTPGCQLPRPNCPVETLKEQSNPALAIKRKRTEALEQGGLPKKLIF
Chain of CDK7/Cyclin H/MAT1 complex (P51946 whole entry partner): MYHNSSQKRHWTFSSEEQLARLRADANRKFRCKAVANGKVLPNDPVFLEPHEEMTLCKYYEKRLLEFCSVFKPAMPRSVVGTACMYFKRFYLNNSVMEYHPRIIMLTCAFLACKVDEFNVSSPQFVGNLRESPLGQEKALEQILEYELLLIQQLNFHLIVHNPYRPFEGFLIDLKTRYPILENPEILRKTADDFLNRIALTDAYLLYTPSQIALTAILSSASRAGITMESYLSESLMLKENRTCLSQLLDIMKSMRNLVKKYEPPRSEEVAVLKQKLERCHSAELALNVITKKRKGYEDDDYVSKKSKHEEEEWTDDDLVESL
Chain of CDK7/Cyclin H/MAT1 complex (P51948 whole entry partner): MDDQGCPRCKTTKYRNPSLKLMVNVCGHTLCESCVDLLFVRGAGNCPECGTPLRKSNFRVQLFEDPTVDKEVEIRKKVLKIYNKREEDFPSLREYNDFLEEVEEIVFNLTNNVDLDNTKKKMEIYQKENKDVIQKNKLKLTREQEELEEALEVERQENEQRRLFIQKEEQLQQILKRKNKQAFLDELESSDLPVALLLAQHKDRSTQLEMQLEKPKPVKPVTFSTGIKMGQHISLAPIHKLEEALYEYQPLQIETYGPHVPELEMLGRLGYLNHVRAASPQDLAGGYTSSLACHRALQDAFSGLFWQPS
The subject of experiment [6] is HCC70 cells. The experiment in a line: Inhibition of cell proliferation (CyQUANT Direct), HCC70. It is filed as cell-based, human. To be noted: Homo sapiens, HCC70, 72-hour.
The target of experiment [7] is CDK9/Cyclin T1 complex (Homo sapiens, UniProt P50750). Description: CDK9 kinase inhibition assay (Caliper/LabChip EZ Reader).
Chain of CDK9/Cyclin T1 complex (P50750 whole entry, the tested form may be a part): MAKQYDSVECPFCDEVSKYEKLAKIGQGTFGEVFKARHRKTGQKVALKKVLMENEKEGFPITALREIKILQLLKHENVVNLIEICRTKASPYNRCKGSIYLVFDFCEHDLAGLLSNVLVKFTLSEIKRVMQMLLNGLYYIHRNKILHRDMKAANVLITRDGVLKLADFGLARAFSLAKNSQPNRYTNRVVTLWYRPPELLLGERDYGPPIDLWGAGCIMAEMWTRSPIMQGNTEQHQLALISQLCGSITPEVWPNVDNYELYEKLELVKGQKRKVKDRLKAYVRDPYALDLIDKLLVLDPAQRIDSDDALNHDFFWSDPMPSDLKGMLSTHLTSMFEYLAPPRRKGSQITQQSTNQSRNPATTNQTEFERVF
Chain of CDK9/Cyclin T1 complex (O60563 whole entry partner, the tested form may be a part): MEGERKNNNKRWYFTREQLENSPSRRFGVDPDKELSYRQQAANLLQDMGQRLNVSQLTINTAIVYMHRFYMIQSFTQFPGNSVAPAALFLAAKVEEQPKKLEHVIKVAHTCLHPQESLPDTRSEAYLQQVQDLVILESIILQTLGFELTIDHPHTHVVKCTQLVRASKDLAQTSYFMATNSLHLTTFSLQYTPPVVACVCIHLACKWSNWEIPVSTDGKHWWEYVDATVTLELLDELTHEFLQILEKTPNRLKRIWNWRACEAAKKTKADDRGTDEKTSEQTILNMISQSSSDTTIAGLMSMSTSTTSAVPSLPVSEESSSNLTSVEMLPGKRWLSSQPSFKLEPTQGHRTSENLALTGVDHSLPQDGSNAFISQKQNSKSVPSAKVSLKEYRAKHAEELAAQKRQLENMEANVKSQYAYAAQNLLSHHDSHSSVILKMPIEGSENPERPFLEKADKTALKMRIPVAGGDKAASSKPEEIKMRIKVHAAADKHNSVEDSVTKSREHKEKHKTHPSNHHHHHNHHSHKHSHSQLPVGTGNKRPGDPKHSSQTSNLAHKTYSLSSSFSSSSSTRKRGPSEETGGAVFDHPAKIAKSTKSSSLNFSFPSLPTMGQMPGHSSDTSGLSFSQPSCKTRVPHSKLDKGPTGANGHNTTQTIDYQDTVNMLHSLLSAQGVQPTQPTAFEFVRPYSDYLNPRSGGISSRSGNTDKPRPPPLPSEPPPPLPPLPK
Procedure: Compounds described herein were assayed for inhibition of CDK7, CDK9, CDK12, and CDK2 activity at Biortus Biosciences (Jiangyin, Jiangsu Province, P.R. of China) using kinase assays for each CDK developed with a Caliper/LabChip EZ Reader (Perkin Elmer, Waltham, Mass.).
Furthermore, the CDK9 inhibition assay used CDK9/Cyclin T1 complex (8 nM) and “5-FAM-CDK9tide” peptide substrate (2 μM, synthesized fluorophore-labeled peptide with the following sequence: 5-FAM-GSRTPMY-NH2 (SEQ ID NO:2) where 5-FAM is defined above and NH2 signifies a C-terminal amide) with 10 mM MgCl2 in the buffer composition listed above. The CDK12 inhibition assay used CDK12 (aa686-1082)/Cyclin K complex (50 nM) and “5-FAM-CDK9tide” (2 μM) as defined above, with 2 mM MgCl2 in the buffer composition above. Additionally, the CDK2 inhibition assay used CDK2/Cyclin E1 complex (0.5 nM) and “5-FAM-CDK7tide” (2 μM; defined above) with 2 mM MgCl2 in the buffer composition above.
The incubation period at 27° C. for each CDK inhibition assay was chosen such that the fraction of phosphorylated peptide product produced in each assay, relative to the total peptide concentration, was approximately 20% (±5%) for the uninhibited kinase (35 min. for CDK7, 35 min. for CDK2, 3 hr. for CDK12, 15 min. for CDK9).
The target in experiment [8] is CDK12 (aa686-1082)/Cyclin K complex (Homo sapiens, UniProt Q9NYV4). Description: CDK12 kinase inhibition assay (Caliper/LabChip EZ Reader).
Chain of CDK12 (aa686-1082)/Cyclin K complex (Q9NYV4 686-1082): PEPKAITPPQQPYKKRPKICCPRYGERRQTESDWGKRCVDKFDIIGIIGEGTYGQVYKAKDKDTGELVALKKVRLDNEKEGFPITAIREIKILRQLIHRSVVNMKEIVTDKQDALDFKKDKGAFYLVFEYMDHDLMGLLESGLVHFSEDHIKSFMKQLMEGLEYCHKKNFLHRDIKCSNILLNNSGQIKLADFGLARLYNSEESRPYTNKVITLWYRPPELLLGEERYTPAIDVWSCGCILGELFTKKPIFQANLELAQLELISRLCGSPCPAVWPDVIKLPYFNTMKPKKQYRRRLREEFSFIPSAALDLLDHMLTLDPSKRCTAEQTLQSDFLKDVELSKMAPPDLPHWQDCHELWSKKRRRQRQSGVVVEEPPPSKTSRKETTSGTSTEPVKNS
Chain of CDK12 (aa686-1082)/Cyclin K complex (O75909 whole entry partner, the tested form may be a part): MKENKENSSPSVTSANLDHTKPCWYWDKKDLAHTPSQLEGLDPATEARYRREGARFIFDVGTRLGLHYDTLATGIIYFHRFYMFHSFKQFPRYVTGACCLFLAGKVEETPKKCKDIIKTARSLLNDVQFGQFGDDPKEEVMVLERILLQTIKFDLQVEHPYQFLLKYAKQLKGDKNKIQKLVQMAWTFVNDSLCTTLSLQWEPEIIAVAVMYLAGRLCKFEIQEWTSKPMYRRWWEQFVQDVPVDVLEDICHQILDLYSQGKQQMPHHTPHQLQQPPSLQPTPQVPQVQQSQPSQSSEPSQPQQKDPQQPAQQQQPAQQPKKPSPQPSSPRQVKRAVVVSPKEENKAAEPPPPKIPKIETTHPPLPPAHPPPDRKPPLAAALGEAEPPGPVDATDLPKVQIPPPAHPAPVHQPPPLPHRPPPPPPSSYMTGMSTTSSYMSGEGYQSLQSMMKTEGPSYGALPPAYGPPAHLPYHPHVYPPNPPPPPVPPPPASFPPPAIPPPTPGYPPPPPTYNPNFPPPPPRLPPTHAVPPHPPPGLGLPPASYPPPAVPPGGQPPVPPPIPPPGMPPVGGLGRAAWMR

Structures are written as SMILES. A value given as a limit tells only on which side of the number the result lay.

In the case of `Cc1nnc(-c2ccc3c(-c4nc(N[C@H]5CCCNC5)ncc4C(F)(F)F)c[nH]c3n2)s1` [Compound 155, 4-[6-(5-methyl-1,3,4-thiadiazol-2-yl)-1H-pyrrolo[2,3-b]pyridin-3-yl]-N-[(3S)-3-piperidyl]-5-(trifluoromethyl)pyrimidin-2-amine], the IC50 in experiment [1] was > 500 nM; in experiment [2], < 100 nM; in experiment [3], < 100 nM; in experiment [4] it was < 100 nM; in experiment [5], < 30 nM; in experiment [6] it was < 100 nM. Besides, the IC50 in experiment [7] and in experiment [8] was > 500 nM throughout.
In the case of `Cc1noc(C)c1-c1ccc2c(-c3nc(N[C@@H]4CC[C@@H](C)NC4)ncc3C(F)(F)F)n[nH]c2n1` [Compound 153, 4-[6-(3,5-dimethylisoxazol-4-yl)-1H-pyrazolo[3,4-b]pyridin-3-yl]-N-[(3R,6R)-6-methyl-3-piperidyl]-5-(trifluoromethyl)pyrimidin-2-amine], the IC50 in experiment [1] is > 500 nM; in experiment [2], < 100 nM; in experiment [3], < 100 nM; in experiment [4], < 100 nM; in experiment [5] it was < 30 nM; in experiment [6] it was < 100 nM. Besides, the IC50 in experiment [7] and in experiment [8] was > 500 nM in each case.
Consider `Cc1nsc(-c2ccc3c(-c4nc(N[C@H]5CCCNC5)ncc4C(F)(F)F)c[nH]c3n2)n1` [Compound 142], for which the IC50 is > 500 nM in experiment [1]; 500 to 1000 nM in experiment [2]; < 100 nM in experiment [3]; < 100 nM in experiment [4]; < 30 nM in experiment [5]; < 100 nM in experiment [6]. For the same compound, the IC50 in experiment [7] and in experiment [8] was > 500 nM each time.
For the compound `Cc1noc(C)c1-c1ccc2c(-c3nc(N[C@H]4CCC(C)(C)NC4)ncc3C(F)(F)F)c[nH]c2c1` [Compound 104, (S)-4-(6-(3,5-dimethylisoxazol-4-yl)-1H-indol-3-yl)-N-(6,6-dimethylpiperidin-3-yl)-5-(trifluoromethyl)pyrimidin-2-amine], the IC50 in experiment [1] was > 500 nM; in experiment [2] it was 100 to 500 nM; in experiment [3], < 100 nM; in experiment [4], < 100 nM; in experiment [5], < 30 nM; in experiment [6], < 100 nM. For the same compound, the IC50 in experiment [7] and in experiment [8] was > 500 nM each time.
For the compound `Cc1nocc1-c1ccc2c(-c3nc(N[C@@H]4CNC[C@H](O)C4)ncc3C(F)(F)F)c[nH]c2n1` [Compound 148, (3R,5S)-5-[[4-[6-(3-methylisoxazol-4-yl)-1H-pyrrolo[2,3-b]pyridin-3-yl]-5-(trifluoromethyl)pyrimidin-2-yl]amino]piperidin-3-ol], the concentration for half-maximal inhibition (IC50) in experiment [1] was > 500 nM; in experiment [2], > 1000 nM; in experiment [3], 500 to 1000 nM; in experiment [4], 100 to 500 nM; in experiment [5], < 30 nM; in experiment [6], > 1000 nM. The IC50 in experiment [7] and in experiment [8] was > 500 nM in each case.
`CNC(=O)[C@H]1CNC[C@@H](Nc2ncc(C(F)(F)F)c(-c3c[nH]c4nc(-c5nccs5)ccc34)n2)C1` [Compound 145, (3R, 5S)—N-methyl-5-[[4-(6-thiazol-2-yl-1H-pyrrolo[2,3-b]pyridin-3-yl)-5-(trifluoromethyl)pyrimidin-2-yl]amino]piperidine-3-carboxamide]: the IC50 in experiment [1] was > 500 nM; in experiment [2], > 1000 nM; in experiment [3], 100 to 500 nM; in experiment [4], 100 to 500 nM; in experiment [5], < 30 nM; in experiment [6], 100 to 500 nM. The half-maximal inhibitory concentration (IC50) in experiment [7] and in experiment [8] was > 500 nM each time.

These data come from US11311542B2, “Inhibitors of cyclin dependent kinase 7 (CDK7)” (Syros Pharmaceuticals, Inc., priority 2018, dated 2022).
